# pIC50: −log10 of the molar value. Where two headings read alike, the source gives them in different places.
# What was measured:
# [1] = system: healthy individuals; conditions: for concentration-dependent effect on QTcP: in vivo
# Source text: (§1) In a randomized, double-blind, 4-period, 4-treatment, cross-over tQTc study, healthy individuals were randomized to one of four treatment sequence groups. […] Serial blood samples for pharmacokinetic analysis were collected on day 4 of each period.
# To account for the high degree of correlation between heart rate and QT interval, various correction formulae, including Bazett’s formula (QTcB), Fridericia’s formula (QTcF), QT interval corrected for heart rate (QTc) based on linear population-based analysis (QTcP), and QT interval corrected for heart rate based on log-linear population-based analysis (QTcLogP) were applied to obtain a QT interval independent of heart rate.
# [2] = healthy individuals, saxagliptin 5 mg, highest recommended therapeutic dose; cited from earlier work
# [3] = system: healthy individuals; conditions: in vivo, po
# Procedure: (§2) Participants who were randomized to 75 or 100 mg received their second dose 30 min before consuming the high fat breakfast. Vital sign and 12-lead electrocardiogram (ECG) measurements were collected at screening, at various times throughout the study, and at discharge.
# [4] = system: healthy individuals; conditions: in vivo
# Procedure: (§3) All doses were administered 1 h before consumption of a standard American Heart Association Step 1 diet (≤30% of calories from fats) or a standard liquid meal on days 8 and 13 (BoostPlus®; Nestlé). […] Vital sign and 12-lead ECG measurements were collected at screening, at various times throughout the study, and at discharge. Multiple blood samples for pharmacokinetic analysis were collected on days 1–2 and 14–15.
# [5] = target: Cardiac hNAV1.5 (Homo sapiens, UniProt Q14524); assay: Radioligand binding, cardiovascular-related targets
# [6] = system: monkeys; conditions: monkey, in vivo
# [7] = system: receptors, ion channels, and enzymes; assay: Radioligand binding panel, all targets assessed; conditions: 10 μM
# [8] = system: healthy participants and patients with T2D; conditions: human, in vivo
# Procedure: as §2, §3, §1
# In a randomized, placebo-controlled, sequential MAD study, 40 patients with T2D were randomized to receive 2.5, 5, 15, 30, or 50 mg/day or matching placebo for 14 days. All doses were administered after consumption of a standard breakfast. […] Vital sign measurements and 12-lead ECG measurements were collected at screening, at various times throughout the study, and at discharge. Serial blood samples for pharmacokinetic analysis were collected on days 1, 7, and 14.
# [9] = target: T1, Muscarinic M2 (Homo sapiens, UniProt P08172); assay: Radioligand binding, cardiovascular-related targets
# T1 sequence (P08172 1-466): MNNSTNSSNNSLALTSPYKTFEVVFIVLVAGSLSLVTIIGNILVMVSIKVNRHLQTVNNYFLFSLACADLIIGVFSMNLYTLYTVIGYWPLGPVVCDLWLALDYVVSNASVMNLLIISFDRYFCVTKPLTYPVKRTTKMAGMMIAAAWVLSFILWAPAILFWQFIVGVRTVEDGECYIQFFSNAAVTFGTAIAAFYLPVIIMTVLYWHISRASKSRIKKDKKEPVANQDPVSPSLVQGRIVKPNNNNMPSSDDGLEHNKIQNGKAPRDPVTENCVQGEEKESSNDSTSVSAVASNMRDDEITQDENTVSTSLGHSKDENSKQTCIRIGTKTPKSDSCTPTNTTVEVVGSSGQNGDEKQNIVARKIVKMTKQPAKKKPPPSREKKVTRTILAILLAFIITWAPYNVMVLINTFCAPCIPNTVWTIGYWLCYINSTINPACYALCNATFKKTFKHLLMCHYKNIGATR
# [10] = target: PDE (phosphodiesterase-3); assay: as above; conditions: antagonism of radioligand binding; read-out: IC50 or EC50
# [11] = target: L type Ca^2+; assay: as above; conditions: antagonism of radioligand binding; read-out: IC50 or EC50
# [12] = system: rodents and non-rodents; conditions: in vivo, po
# [13] = system: rat; conditions: in vivo, iv, 5.9 mg/kg
# [14] = system: rabbit Purkinje fibers; conditions: mean (SEM)
# [15] = system: dogs; conditions: dog, in vivo
# [16] = target: T2, Adrenergic α1β (Homo sapiens, UniProt P35368); assay: Radioligand binding, cardiovascular-related targets
# T2 sequence (P35368 1-520): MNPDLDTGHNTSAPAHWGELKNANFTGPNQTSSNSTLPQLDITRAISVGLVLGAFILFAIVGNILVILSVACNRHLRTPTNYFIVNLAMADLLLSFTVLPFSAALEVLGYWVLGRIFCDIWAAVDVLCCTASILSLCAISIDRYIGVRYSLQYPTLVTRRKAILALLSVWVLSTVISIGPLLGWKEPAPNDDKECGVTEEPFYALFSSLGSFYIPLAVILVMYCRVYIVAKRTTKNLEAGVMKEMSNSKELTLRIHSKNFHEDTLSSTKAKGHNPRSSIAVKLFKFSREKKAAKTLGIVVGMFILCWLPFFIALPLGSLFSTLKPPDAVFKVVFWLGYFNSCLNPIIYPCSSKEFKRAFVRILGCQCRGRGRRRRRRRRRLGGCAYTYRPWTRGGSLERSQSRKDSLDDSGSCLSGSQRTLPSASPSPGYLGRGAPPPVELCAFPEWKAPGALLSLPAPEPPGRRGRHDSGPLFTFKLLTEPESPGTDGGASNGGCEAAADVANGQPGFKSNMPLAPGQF
# [17] = target: GABA-A α1B2γ2 (Homo sapiens, UniProt P14867+P18507+P47870); assay: as above
# [18] = system: dog; conditions: in vivo, iv, 5.9 mg/kg
# [19] = target: ACE; assay: Radioligand binding, cardiovascular-related targets
# Sequence of ACE (P22303 32-614, species assumed): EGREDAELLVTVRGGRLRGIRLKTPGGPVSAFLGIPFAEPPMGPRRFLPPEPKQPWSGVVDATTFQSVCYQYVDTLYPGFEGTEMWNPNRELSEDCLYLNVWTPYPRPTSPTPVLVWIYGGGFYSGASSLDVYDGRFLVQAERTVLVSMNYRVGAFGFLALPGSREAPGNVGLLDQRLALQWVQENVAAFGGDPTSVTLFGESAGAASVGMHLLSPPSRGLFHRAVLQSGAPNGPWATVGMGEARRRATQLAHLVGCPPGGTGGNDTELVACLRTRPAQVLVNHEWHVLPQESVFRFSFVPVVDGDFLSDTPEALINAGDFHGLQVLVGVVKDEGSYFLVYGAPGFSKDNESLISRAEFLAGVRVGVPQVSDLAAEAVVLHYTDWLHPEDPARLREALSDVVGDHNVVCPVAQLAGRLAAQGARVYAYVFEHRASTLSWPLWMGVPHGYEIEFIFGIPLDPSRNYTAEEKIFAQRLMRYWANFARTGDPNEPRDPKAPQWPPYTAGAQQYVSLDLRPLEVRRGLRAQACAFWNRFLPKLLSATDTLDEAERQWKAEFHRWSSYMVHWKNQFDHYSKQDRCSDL
# Sequence of GABA-A α1B2γ2 (P14867 28-456): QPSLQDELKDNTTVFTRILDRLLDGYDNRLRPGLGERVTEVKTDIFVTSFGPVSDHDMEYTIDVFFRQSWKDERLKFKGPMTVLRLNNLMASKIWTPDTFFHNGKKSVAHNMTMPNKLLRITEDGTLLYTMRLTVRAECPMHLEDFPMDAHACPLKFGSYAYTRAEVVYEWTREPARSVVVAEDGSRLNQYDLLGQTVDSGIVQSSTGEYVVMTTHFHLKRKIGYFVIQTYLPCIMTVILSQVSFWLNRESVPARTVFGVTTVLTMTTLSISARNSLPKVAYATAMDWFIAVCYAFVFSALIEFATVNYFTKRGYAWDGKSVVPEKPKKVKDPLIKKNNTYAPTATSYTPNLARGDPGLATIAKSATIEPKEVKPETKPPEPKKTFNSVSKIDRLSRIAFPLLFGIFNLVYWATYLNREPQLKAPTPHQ
# Sequence of GABA-A α1B2γ2 (P47870 25-512 limits assumed): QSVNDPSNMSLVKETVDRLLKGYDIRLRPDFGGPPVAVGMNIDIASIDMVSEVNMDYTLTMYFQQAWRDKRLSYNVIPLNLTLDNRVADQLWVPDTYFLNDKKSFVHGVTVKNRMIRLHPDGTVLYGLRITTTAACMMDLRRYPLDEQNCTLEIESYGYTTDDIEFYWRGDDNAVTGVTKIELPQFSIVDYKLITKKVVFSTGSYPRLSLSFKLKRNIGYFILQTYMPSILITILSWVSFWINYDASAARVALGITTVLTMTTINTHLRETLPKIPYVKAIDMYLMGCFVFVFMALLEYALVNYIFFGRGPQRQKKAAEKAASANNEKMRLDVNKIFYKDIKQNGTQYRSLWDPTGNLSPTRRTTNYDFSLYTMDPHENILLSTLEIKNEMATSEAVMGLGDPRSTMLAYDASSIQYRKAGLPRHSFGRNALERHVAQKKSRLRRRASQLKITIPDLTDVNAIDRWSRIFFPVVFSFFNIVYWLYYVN
# Sequence of GABA-A α1B2γ2 (P18507 40-475): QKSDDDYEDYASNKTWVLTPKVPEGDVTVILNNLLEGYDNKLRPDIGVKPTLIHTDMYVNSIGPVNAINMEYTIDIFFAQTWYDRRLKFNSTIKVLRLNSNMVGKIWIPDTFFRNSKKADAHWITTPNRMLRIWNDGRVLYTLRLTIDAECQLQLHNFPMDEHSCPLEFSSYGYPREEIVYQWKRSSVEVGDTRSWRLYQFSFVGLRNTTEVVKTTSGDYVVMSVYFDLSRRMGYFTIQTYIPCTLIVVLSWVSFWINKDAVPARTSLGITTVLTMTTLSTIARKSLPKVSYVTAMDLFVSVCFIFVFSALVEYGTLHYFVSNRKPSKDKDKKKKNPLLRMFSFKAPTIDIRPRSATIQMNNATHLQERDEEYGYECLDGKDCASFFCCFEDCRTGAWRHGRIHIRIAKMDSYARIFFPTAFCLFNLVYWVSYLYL
# Sequence of Cardiac hNAV1.5 (Q14524 whole entry): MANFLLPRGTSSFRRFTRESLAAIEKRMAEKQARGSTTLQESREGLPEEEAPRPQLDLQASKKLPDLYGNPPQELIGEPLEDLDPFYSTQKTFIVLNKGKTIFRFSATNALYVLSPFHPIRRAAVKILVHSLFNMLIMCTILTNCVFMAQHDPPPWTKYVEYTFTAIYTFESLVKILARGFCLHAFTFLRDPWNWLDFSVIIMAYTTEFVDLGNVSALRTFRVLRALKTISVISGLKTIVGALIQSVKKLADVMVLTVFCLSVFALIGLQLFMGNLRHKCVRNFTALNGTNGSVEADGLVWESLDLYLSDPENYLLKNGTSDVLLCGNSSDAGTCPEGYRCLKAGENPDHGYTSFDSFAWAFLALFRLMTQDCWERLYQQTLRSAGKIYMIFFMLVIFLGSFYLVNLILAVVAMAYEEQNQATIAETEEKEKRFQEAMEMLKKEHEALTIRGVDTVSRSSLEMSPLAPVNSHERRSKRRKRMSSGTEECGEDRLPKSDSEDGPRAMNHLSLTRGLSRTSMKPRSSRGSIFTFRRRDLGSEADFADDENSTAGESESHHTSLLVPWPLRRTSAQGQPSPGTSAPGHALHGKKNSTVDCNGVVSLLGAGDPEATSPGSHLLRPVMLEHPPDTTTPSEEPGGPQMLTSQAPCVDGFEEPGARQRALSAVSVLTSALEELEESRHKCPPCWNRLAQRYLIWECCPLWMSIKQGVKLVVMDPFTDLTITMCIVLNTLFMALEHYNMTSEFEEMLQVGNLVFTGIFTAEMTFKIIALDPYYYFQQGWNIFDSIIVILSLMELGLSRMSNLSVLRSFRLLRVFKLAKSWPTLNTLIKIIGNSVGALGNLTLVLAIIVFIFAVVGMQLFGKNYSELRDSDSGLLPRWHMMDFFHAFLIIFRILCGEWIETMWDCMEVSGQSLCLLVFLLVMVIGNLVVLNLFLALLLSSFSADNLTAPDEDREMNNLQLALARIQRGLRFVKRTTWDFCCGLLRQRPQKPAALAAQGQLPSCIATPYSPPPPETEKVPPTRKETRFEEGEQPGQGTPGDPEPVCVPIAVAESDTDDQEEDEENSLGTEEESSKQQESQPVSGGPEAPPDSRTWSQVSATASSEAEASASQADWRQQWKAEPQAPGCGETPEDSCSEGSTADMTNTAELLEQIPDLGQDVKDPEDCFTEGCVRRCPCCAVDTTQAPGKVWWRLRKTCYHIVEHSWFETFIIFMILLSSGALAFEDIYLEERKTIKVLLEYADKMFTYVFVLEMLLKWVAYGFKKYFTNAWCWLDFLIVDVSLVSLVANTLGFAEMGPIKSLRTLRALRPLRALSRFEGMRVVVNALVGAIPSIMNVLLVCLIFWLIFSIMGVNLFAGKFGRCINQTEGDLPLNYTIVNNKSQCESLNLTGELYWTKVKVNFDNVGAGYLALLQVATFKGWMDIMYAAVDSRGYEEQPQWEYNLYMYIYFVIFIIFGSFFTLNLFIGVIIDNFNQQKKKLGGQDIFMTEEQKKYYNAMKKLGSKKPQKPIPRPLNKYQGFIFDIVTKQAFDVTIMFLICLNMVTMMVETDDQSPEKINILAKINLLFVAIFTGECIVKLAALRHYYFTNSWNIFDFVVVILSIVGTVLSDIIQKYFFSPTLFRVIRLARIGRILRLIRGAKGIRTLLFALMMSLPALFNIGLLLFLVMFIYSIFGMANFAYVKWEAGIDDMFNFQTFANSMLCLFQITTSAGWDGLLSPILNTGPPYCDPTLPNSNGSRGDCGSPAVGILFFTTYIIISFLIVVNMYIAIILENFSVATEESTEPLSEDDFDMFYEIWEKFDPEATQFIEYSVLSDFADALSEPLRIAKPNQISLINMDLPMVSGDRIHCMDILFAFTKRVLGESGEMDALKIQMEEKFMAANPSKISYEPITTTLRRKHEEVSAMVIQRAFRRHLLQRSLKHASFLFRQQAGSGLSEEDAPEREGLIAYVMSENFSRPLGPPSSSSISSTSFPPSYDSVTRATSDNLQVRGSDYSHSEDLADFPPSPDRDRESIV
molecule,measurement,setting,value
COc1c(N2C[C@@H]3CCCN[C@@H]3C2)c(F)cc2c(=O)c(C(=O)O)cn(C3CC3)c12 [moxifloxacin],"maximum placebo-adjusted, time-matched change from baseline in QTcP","[1]; 400 mg, 4 h after dosing",12.52 ms
same,one-sided lower 95% confidence bound of QTcP change at time of maximum effect,"[1]; 400 mg, 4 h after dosing",7.83 ms
same,individuals with QTcP change from baseline >30 ms,[1]; after treatment with placebo and moxifloxacin,1
5-hydroxy saxagliptin,maximum plasma concentration,[2],0.047 µg/mL
same,dose excreted (renal excretion),[3],~40%
same,mean renal clearance versus mean GFR,[3],did not exceed mean GFR
same,plasma exposures versus dose,[3],generally increased proportionally with dose
same,concentration-dependent effect on QTcP,[1],no concentration-dependent effect
same,pharmacokinetics versus dose,[4],appeared linear with respect to dose
N#C[C@@H]1C[C@@H]2C[C@@H]2N1C(=O)[C@@H](N)C12CC3CC(CC(O)(C3)C1)C2 [saxagliptin],pIC50,[5],< 4.52
same,Cmax exposure multiple of Cmax at the 5 mg oral human dose,[6]; 3.4 mg/kg,280 times
same,adverse effects,"[6]; iv, 0.225 mg/kg",No adverse effects
same,decreased blood pressure (reductions),"[6]; iv, 3.4 mg/kg",< 40 mmHg
same,inhibition on any targets assessed,[7],< 25%
same,effect on vital sign measurements,[8],no effect
same,marked abnormalities in AST,[8],No marked abnormalities
same,pIC50,[9],< 4.52
same,pIC50,[10],< 4.52
same,pIC50,[11],< 4.60
same,multiples of human exposures based on AUC,[12],up to 2200 times
same,adverse effects,[13],no adverse effects
same,APD50,[14]; 3 μM,149 (24) ms
same,APD50 % Change,[14]; 3 μM,0 (0) %
same,APD90,[14]; 3 μM,235 (11) ms
same,APD90 % Change,[14]; 3 μM,2 (1) %
same,Maximum upstroke velocity (Vmax),[14]; 3 μM,446 (15) v/s
same,Maximum upstroke velocity (Vmax) % Change,[14]; 3 μM,−5 (3) %
same,Overshoot,[14]; 3 μM,29 (4) mV
same,Overshoot % Change,[14]; 3 μM,−7 (12) %
same,Resting Membrane Potential,[14]; 3 μM,−84 (1) mV
same,Resting Membrane Potential % Change,[14]; 3 μM,0 (1) %
same,APD50,[14]; 10 μM,153 (26) ms
same,APD50 % Change,[14]; 10 μM,2 (1) %
same,APD90,[14]; 10 μM,237 (14) ms
same,APD90 % Change,[14]; 10 μM,2 (1) %
same,Maximum upstroke velocity (Vmax),[14]; 10 μM,462 (21) v/s
same,Maximum upstroke velocity (Vmax) % Change,[14]; 10 μM,−2 (3) %
same,Overshoot,[14]; 10 μM,32 (4) mV
same,Overshoot % Change,[14]; 10 μM,1 (11) %
same,Resting Membrane Potential,[14]; 10 μM,−86 (1) mV
same,Resting Membrane Potential % Change,[14]; 10 μM,2 (2) %
same,APD50,[14]; 30 μM,152 (21) ms
same,APD50 % Change,[14]; 30 μM,3 (4) %
same,APD90,[14]; 30 μM,239 (11) ms
same,APD90 % Change,[14]; 30 μM,3 (2) %
same,Maximum upstroke velocity (Vmax),[14]; 30 μM,437 (13) v/s
same,Maximum upstroke velocity (Vmax) % Change,[14]; 30 μM,−7 (5) %
same,Overshoot,[14]; 30 μM,29 (5) mV
same,Overshoot % Change,[14]; 30 μM,−7 (14) %
same,Resting Membrane Potential,[14]; 30 μM,−85 (2) mV
same,Resting Membrane Potential % Change,[14]; 30 μM,1 (3) %
same,heart weight,[15],No increase
same,Cmax exposure multiple of the 5 mg clinical dose,[15]; po,≤ 750 times
same,dose excreted (renal excretion),[3]; human,approximately 20%
same,mean renal clearance versus mean GFR,[3],exceeded mean GFR
same,plasma exposures versus dose,[3],generally increased proportionally with dose
same,pIC50,[16],< 4.52
same,concentration-dependent effect on QTcP,[1],no concentration-dependent effect
same,pIC50,[17],< 4.52
same,adverse effects,[18],no adverse effects
same,pIC50,[19],< 4.22

# From publication PMC5598064 (Cardiovascular Diabetology, 2017)
